Test system: Pal-mCherry accumulation at the septum
Assay: TIRFM of Pal-mCherry accumulation at the division septum
Format: cell-based
Settings: dividing E. coli cells, mutant TolB; average of 30 cells
Procedure: Overnight supplemented M9-glucose (2 mM MgSO4, 0.1 mM CaCl2, 0.4% (w/v) D-glucose) cultures were diluted in fresh medium with appropriate antibiotics and IPTG for strains expressing TolA from plasmids. Cultures were grown at 37 °C to OD600 0.3. Cells were centrifuged at 7000 × g for 1 min, resuspended in 1 ml of fresh media and treated with CCCP (0.1 mM, RT for 5 min, Sigma #C2759) for PMF decoupling, sodium azide (50 µg ml^−1, RT for 30 min, Sigma #S2002) for ATPase inhibition or chloramphenicol (30 µg ml^−1, 37 °C for 30 min, Sigma #C0378) for translation inhibition. […]
Live cells were imaged using an Oxford NanoImager (ONI) superresolution microscope equipped with four laser lines (405/473/561/640 nm) and ×100 oil immersion objective (Olympus 1.49 NA). Pal-mCherry fluorescence images were acquired by scanning a 50 µm × 80 µm area with a 561 nm laser (0.2 mW) set at 49° incidence angle (100 ms exposition), resulting in a 512 × 1024 pixel image. […] Images were recorded by NimOS software associated with the ONI instrument. If not noted otherwise, each image was acquired as a 100- or 200-frame stack for brightfield and fluorescence channels, respectively. […]
All images were analysed using ImageJ software. Fluorescence distribution along x-axis of cells was determined by the plot profile function with a line width of 4 points for TIRFM images and 40 or 80 for FRAP images. […]

For “TolB^AAA: Alanine-substitution of three key hydrophobic residues in E. coli TolB (Ile25Ala, Val26Ala, Ile27Ala)”, the “Pal-mCherry accumulation at division sites” value was “abolishes Pal-mCherry accumulation at the septum”.

Reference: paper PMC7066135, “The lipoprotein Pal stabilises the bacterial outer membrane during constriction by a mobilisation-and-capture mechanism” (Nature Communications, 2020)
